Counter-ions that a name gives are not always drawn.
Experiments:
[1] = target: T1, OXA-1 (Escherichia coli, UniProt P13661); experiment: β-lactamase inhibitory activity, determination of IC50 (nitrocefin hydrolysis); assay type: biochemical; details: class (D); nitrocefin 200 μM, 30 min pre-incubation; read-out: IC50 β-lactamase OXA-1
T1 construct: made in house; host or cells: E. coli

[2] = target: T2, TEM-1 (Escherichia coli, UniProt P62593); experiment: as above; assay type: biochemical
T2 construct: made in house; host or cells: E. coli
T2 sequence (P62593 24-286 limits assumed): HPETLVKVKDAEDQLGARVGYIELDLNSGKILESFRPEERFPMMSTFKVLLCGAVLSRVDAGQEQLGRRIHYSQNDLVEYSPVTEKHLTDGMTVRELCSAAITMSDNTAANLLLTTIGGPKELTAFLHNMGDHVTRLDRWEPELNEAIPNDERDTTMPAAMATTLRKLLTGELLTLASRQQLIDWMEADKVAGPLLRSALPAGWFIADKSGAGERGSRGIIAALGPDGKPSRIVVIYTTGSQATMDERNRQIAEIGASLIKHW

[3] = target: AmpC (P99) (Enterobacter cloacae, UniProt P05364); experiment: as above
Chain of AmpC (P99) (P05364 21-381): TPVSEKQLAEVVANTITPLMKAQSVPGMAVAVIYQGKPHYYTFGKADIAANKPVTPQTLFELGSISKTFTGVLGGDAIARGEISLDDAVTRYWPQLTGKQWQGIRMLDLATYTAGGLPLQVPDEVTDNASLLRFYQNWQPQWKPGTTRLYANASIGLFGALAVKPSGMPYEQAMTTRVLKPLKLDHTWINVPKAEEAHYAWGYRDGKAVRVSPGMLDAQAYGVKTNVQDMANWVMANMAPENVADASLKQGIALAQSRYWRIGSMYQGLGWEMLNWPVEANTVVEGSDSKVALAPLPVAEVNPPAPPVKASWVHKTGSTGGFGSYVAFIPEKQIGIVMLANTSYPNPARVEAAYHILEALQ

[4] = target: T3, OXA-48 (Klebsiella pneumoniae, UniProt Q6XEC0); experiment: as above; assay type: biochemical; details: class (D); nitrocefin 200 μM, 30 min pre-incubation; read-out: IC50 β-lactamase OXA-48
T3 construct: made in house; host or cells: E. coli
T3 sequence (Q6XEC0 23-265 limits assumed): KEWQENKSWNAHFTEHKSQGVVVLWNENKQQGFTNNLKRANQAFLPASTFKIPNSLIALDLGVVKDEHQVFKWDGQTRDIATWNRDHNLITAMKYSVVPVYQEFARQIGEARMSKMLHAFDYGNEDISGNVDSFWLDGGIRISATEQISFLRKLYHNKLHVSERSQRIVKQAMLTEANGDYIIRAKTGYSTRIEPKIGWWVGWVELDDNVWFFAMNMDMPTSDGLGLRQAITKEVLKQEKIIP

[5] = target: T4, CTX-M-15 (Escherichia coli, UniProt Q9EXV5); experiment: as above; assay type: biochemical; details: class (A); nitrocefin 200 μM, 30 min pre-incubation; read-out: IC50 β-lactamase CTX-M-15
T4 construct: made in house; host or cells: E. coli
T4 sequence (Q9EXV5 entry or part of it): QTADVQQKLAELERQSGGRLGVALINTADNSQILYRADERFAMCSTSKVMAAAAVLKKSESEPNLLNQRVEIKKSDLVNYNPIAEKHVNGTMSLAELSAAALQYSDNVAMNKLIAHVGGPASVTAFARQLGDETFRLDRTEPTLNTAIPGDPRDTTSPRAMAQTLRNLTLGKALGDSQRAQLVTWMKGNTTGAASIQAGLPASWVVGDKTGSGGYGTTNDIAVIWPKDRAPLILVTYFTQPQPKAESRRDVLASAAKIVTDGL

[6] = target: T5, OXA-11 (Pseudomonas aeruginosa, UniProt Q06778); experiment: as above; assay type: biochemical
T5 construct: made in house; host or cells: E. coli
T5 sequence (Q06778 21-266): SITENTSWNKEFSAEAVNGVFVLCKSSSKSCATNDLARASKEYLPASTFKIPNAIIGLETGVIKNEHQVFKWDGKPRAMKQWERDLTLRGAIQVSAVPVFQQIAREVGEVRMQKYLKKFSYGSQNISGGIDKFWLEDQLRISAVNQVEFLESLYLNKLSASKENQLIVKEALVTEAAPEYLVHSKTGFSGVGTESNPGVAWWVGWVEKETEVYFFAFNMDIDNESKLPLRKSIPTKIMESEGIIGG

[7] = target: AmpC P. aeruginosa (Pseudomonas aeruginosa, UniProt P24735); experiment: as above
Chain of AmpC P. aeruginosa (P24735 27-397): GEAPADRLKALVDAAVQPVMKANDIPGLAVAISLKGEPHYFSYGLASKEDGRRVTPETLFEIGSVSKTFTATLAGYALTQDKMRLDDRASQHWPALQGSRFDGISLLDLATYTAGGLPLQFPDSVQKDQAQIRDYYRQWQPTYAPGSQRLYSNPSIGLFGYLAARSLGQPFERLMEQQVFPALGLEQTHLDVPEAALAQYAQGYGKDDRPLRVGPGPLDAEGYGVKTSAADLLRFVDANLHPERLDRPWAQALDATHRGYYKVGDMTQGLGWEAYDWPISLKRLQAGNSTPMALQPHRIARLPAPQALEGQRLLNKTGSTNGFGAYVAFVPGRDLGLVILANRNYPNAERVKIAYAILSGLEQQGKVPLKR

[8] = test system: P. aeruginosa CIP107051 (TEM-24); experiment: MIC of compounds alone, broth microdilution; assay type: cell-based; details: Pseudomonas aeruginosa; strain CIP107051 (P. aeruginosa); read-out: MIC compounds of the invention alone
Procedure: (§1) Method 2: MIC of Compounds and Synergy with Ceftazidime Against Bacterial Isolates (Table 2 and 3)
(§2) Compounds of the present invention were assessed against genotyped bacterial strains alone or in combination with the β-lactam ceftazidime (CAZ). In the assays, MICs of said compounds, or of ceftazidime at fixed concentrations of said compounds were determined by the broth microdilution method according to the Clinical Laboratory Standards Institute (CLSI-M7-A7). Briefly, compounds alone according to the invention were prepared in DMSO and spotted (2 μL each) on sterile polystyrene plates (Corning, 3788). Compounds and ceftazidime dilutions were prepared in DMSO and spotted (1 μL each) on sterile polystyrene plates (Corning, 3788). Log phase bacterial suspensions were adjusted to a final density of 5×10^5 cfu/mL in cation-adjusted Mueller-Hinton broth (Becton-Dickinson) and added to each well (98 μL). Microplates were incubated for 16-20 h at 35° C. in ambient air. The MIC of the compounds was defined as the lowest concentration of said compounds that prevented bacterial growth as read by visual inspection. The MIC of ceftazidime at each compound concentration was defined as the lowest concentration of ceftazidime that prevented bacterial growth as read by visual inspection.

[9] = test system: K. pneumoniae 6299 (TEM-1, SHV-11, OXA-163); experiment: MIC of compounds alone, broth microdilution; assay type: cell-based; details: Klebsiella pneumoniae; strain 6299 (K. pneumoniae); read-out: MIC compounds of the invention alone
Procedure: as §1, §2

[10] = test system: E. coli 131119 (TEM-1, OXA-48); experiment: MIC of compounds alone, broth microdilution; assay type: cell-based; details: Escherichia coli; strain 131119 (E. coli); read-out: MIC compounds of the invention alone
Procedure: as §1, §2

[11] = test system: K. pneumoniae BAA-1898 (TEM-1, SHV-11, SHV-12, KPC-2); experiment: MIC of compounds alone, broth microdilution; assay type: cell-based; details: Klebsiella pneumoniae, BAA1898; strain BAA-1898 (K. pneumoniae); read-out: MIC compounds of the invention alone
Procedure: as §1, §2

[12] = test system: E. coli 190317 (TEM-1, SHV-12, CTX-M-15, OXA-1); experiment: MIC of compounds alone, broth microdilution; assay type: cell-based; details: Escherichia coli, read-out: MIC compounds of the invention alone
Procedure: as §1, §2

[13] = test system: E. cloacae P99 (AmpC); experiment: MIC of compounds alone, broth microdilution; assay type: cell-based; details: Enterobacter cloacae; strain P99 (E. cloacae); read-out: MIC compounds of the invention alone
Procedure: as §1, §2

[14] = test system: E. coli RGN238 (OXA-1); experiment: MIC of compounds alone, broth microdilution; assay type: cell-based; details: Escherichia coli; strain RGN238 (E. coli); read-out: MIC compounds of the invention alone
Procedure: as §1, §2

[15] = target: T6, SHV-1 (Klebsiella pneumoniae, UniProt P0AD64); experiment: β-lactamase inhibitory activity, determination of IC50 (nitrocefin hydrolysis); assay type: biochemical
T6 construct: made in house; host or cells: E. coli
T6 sequence (P0AD64 22-286): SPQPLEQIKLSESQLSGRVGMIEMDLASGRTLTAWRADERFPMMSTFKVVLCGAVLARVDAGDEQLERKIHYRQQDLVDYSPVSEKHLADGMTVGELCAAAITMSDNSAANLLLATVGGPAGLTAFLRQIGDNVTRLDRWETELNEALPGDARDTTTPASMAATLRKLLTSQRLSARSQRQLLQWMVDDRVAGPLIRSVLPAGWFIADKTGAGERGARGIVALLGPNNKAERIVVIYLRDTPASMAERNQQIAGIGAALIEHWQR

[16] = target: T7, OXA-15 (Pseudomonas aeruginosa, UniProt Q51574); experiment: biochemical
T7 construct: made in house; host or cells: E. coli
T7 sequence (Q51574 22-275): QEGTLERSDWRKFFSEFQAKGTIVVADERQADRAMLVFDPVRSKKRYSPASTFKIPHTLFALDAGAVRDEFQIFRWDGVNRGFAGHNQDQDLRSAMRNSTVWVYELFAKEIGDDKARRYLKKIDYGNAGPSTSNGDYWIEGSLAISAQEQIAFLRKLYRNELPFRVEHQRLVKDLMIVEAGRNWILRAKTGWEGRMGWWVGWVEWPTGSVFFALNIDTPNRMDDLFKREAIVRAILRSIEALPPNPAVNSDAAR

[17] = target: T8, KPC-2 (Klebsiella pneumoniae, UniProt Q9F663); experiment: β-lactamase inhibitory activity, determination of IC50 (nitrocefin hydrolysis); assay type: biochemical; details: class (A); nitrocefin 200 μM, 30 min pre-incubation; read-out: IC50 β-lactamase KPC-2
T8 construct: made in house; host or cells: E. coli
T8 sequence (Q9F663 25-293 limits assumed): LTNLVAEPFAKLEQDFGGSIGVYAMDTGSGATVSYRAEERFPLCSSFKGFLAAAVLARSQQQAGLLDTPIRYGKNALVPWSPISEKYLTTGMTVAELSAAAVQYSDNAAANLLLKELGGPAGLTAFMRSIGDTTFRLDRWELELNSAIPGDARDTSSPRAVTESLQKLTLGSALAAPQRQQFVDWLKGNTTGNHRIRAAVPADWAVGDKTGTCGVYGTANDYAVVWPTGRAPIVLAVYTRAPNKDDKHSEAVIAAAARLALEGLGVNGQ

[18] = test system: K. pneumoniae UFR39 (CTX-M-15, NDM-1); experiment: MIC of compounds alone, broth microdilution; assay type: cell-based; details: Klebsiella pneumoniae; strain UFR39 (K. pneumoniae); read-out: MIC compounds of the invention alone
Procedure: as §1, §2

T1 sequence (P13661 26-276): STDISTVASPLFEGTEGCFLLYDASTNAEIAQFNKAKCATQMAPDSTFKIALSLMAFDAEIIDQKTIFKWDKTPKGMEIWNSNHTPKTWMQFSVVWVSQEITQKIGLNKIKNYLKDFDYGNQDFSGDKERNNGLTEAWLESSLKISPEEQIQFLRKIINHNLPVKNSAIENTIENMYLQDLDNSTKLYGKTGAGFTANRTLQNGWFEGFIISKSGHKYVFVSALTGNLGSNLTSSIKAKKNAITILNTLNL

Structure (SMILES)	IC50 [1] [nM]	IC50 [2] [nM]	IC50 [3] [nM]	IC50 [4] [nM]	IC50 [5] [nM]	IC50 [6] [nM]	IC50 [7] [nM]	MIC [8] [µg/mL]	MIC [9] [µg/mL]	MIC [10] [µg/mL]	MIC [11] [µg/mL]	MIC [12] [µg/mL]	MIC [13] [µg/mL]	MIC [14] [µg/mL]	IC50 [15] [nM]	IC50 [16] [nM]	IC50 [17] [nM]	MIC [18] [µg/mL]
O=C1N2CC(c3nc4ccccc4s3)=CC(C2)N1OS(=O)(=O)[O-].[Na+] (centres unmarked) [Example 27, Sodium [3-(1,3-benzothiazol-2-yl)-7-oxo-1,6-diazabicyclo[3.2.1]oct-3-en-6-yl] sulfate]	560	0.21	9.1	6.4	1.4	150	68	> 32	> 32	> 32	> 32	> 32	> 32	> 32	2.1	99	2.7	–
Cn1cc(C2=CC3CN(C2)C(=O)N3OS(=O)(=O)[O-])ccc1=O.[Na+] (centres unmarked) [Example 28, Sodium [3-(1-methyl-6-oxo-3-pyridyl)-7-oxo-1,6-diazabicyclo[3.2.1]oct-3-en-6-yl] sulfate]	1000	1.6	77	54	4.4	430	520	> 32	> 32	> 32	> 32	> 32	> 32	> 32	3.8	18	6.5	–
O=C1N2CC=C(c3cnsc3)C(C2)N1OS(=O)(=O)[O-].[Na+] (centres unmarked) [Example 29, Sodium [4-(isothiazol-4-yl)-7-oxo-1,6-diazabicyclo[3.2.1]oct-3-en-6-yl] sulfate]	330	11	950	2.8	5.8	1700	1200	> 32	> 32	> 32	> 32	> 32	> 32	> 32	20	91	150	–
O=C1N2CC=C(c3cscn3)C(C2)N1OS(=O)(=O)[O-].[Na+] (centres unmarked) [Example 31, sodium [4-(thiazol-4-yl)-7-oxo-1,6-diazabicyclo[3.2.1]oct-3-en-6-yl] sulfate]	1100	4.9	940	2.3	5.5	990	1500	> 32	> 32	16	> 32	16	16	> 32	11	97	360	–
NCc1ncc(C2=CCN3CC2N(OS(=O)(=O)O)C3=O)s1 (centres unmarked) [Example 32, [4-[2-(aminomethyl)thiazol-5-yl]-7-oxo-1,6-diazabicyclo[3.2.1]oct-3-en-6-yl] hydrogen sulfate]	670	7.5	4400	8.9	14	3500	3200	> 32	> 32	> 32	> 32	8	16	> 32	33	170	300	–
COc1ncc(C2=CC3CN(C2)C(=O)N3OS(=O)(=O)[O-])s1.[Na+] (centres unmarked) [Example 39, Sodium [3-(2-methoxythiazol-5-yl)-7-oxo-1,6-diazabicyclo[3.2.1]oct-3-en-6-yl] sulfate]	220	1.4	46	0.99	0.62	140	240	> 32	> 32	–	> 32	> 32	> 32	–	3.2	79	11	> 32
O=C1N2CC(c3nc4cccnc4s3)=CC(C2)N1OS(=O)(=O)[O-].[Na+] (centres unmarked) [Example 40, Sodium (7-oxo-3-thiazolo[5,4-b]pyridin-2-yl-1,6-diazabicyclo[3.2.1]oct-3-en-6-yl) sulfate]	120	0.35	10	2.7	1.2	61	230	> 32	> 32	–	> 32	> 32	> 32	–	1.1	77	2.2	> 32
O=C1N2CC(c3ccccn3)=CC(C2)N1OS(=O)(=O)[O-].[Na+] (centres unmarked) [Example 42, Sodium [7-oxo-3-(2-pyridyl)-1,6-diazabicyclo[3.2.1]oct-3-en-6-yl]sulfate]	640	2.4	25	31	0.89	120	75	> 32	> 32	–	32	16	> 32	–	2.9	370	8	32
O=C1N2CC(c3cn[nH]c3)=CC(C2)N1OS(=O)(=O)[O-].[Na+] (centres unmarked) [Example 43, Sodium [7-oxo-3-(1H-pyrazol-4-yl)-1,6-diazabicyclo[3.2.1]oct-3-en-6-yl] sulfate]	1200	0.77	180	9.4	2.9	370	440	> 32	> 32	–	> 32	> 32	> 32	–	1.7	540	30	> 32
